According to patent US5534535A, “Therapeutic nucleosides” (Burroughs Wellcome Co., priority 1992, dated 1996):
Where two headings read alike, the source gives them in different places.

Test system: HBV
Test: Anti-HBV assay: HBV DNA in supernatants of HBV-producing cells (HepG2 2.2.15, P5A cell line), immunoaffinity capture, PCR and hybrid-capture detection
Assay type: cell-based, Hepatitis B virus
Conditions: table headed Anti-HCMV Activity
Description: Anti-HBV activity of compounds of formula (I) and (I-1) was determined with a high-capacity assay for assessing efficacy. Supernatants from growing HBV-producing cells (HepG2 2.2.15, P5A cell line) in 96-well plates are applied to microtiter plate wells which have been coated with a specific monoclonal antibody to HBV surface antigen (HBsAg). Virus particles present in the supernatants bind to the antibody and remain immobilized while other debris is removed by washing. These virus particles are then denatured to release HBV DNA strands which are subsequently amplified by the polymerase chain reaction and detected with a colorimetric hybrid-capture assay. Quantitation is achieved through fitting of a standard curve to dilutions of a cell supernatant with known HBV DNA content. By comparing HBV DNA levels of untreated control cell supernatants with supernatants containing a compound of formula (I) or (I-1), a measure of anti-HBV effectiveness is obtained.
HBV producer cells, 2500 cells/well, were seeded in 96-well culture dishes in RPMI/10% fetal bovine serum/2 mM glutamine (RPMI/10/2:). […] Twenty-five uL HBV standard media dilutions in RPMI/10/2 were added to 2 rows of wells to serve as an internal standard curve for quantitation, and the plates were sealed and incubated at 4° C. overnight. […]
Polymerase chain reaction (Saiki, R. K. et al., Science, 239 (4839) 487-91 (1988)) was carried out on 5 uL samples, using a Perkin Elmer PCR kit. […] Primers were chosen from conserved regions in the HBV genome, as determined by alignment of several sequences. […]
PCR products were detected with horse radish peroxidase-labeled oligonucleotide probes (Synthecell Corp., Rockville, Md. 20850), which hybridize to biotinylated strands of denatured PCR products directly in streptavidin-coated microtiter plate wells, using essentially the method of Holodiniy, M. et al., Bio Techniques, 12 (1)37-39 (1992). […] Quantities of HBV DNA present in the original samples were calculated by comparison with standards. […]

[1] = Hepatitis B virus, HepG2 2.2.15, read-out: Anti-HBV activity, approximate IC50 (50 percent decrease in HBV DNA), HepG2 2.2.15, P5A cell line

Row | SMILES | IC50 [1] [µM] | IC50 (read-out: Anti-HBV activity, approximate IC50 (50 percent decrease in HBV DNA), HepG2 2.2.15, P5A cell line) [µM]
1 | OC[C@@H]1C[C@@H](O)[C@H](n2c(Br)nc3cc(Cl)c(Cl)cc32)C1 (relative stereo) [Ex. 13, (±)-(1R*, 2R*, 4S*)-2-(2-Bromo-5,6-dichloro-1H-benzimidazol-1-yl)-4-(hydroxymethyl)cyclo-pentanol] | 5 | 
2 | OC[C@@H]1C[C@H](n2c(Br)nc3cc(Cl)c(Cl)cc32)[C@@H](O)[C@H]1O [Ex. 69, (1R, 2S, 3S, 5S)-5-(2-Bromo-5,6-dichloro-1H-benzimidazol-1-yl)-3-(hydroxymethyl)-1,2-cyclopentanediol] | 0.72 | 1.3
